The numbers were not newly measured in patent US20150320893A1, “TREATMENT OF LATENT HIV INFECTION” (priority 2012, published 2015), which cites them from elsewhere.

The structures appear in SMILES notation.

The series has as its system latent virus in harboring cells. To be noted: by manipulating the PKC pathway(s) within the cell.

As for `CCC/C=C/C=C/C(=O)O[C@H]1/C(=C/C(=O)OC)C[C@H]2C[C@H]([C@@H](C)O)OC(=O)C[C@H](O)C[C@@H]3C[C@H](OC(C)=O)C(C)(C)[C@](O)(C[C@@H]4C/C(=C/C(=O)OC)C[C@H](/C=C/C(C)(C)[C@]1(O)O2)O4)O3` [bryostatin-1, bryostatin 1], the “ability to induce latent viral replication” value was “induce latent viral replication without encouraging cell cycle progression”. In the case of `CC(=O)O[C@@]12C[C@@H](C)[C@@]3(O)[C@@H](C=C(CO)C[C@]4(O)C(=O)C(C)=C[C@@H]34)[C@@H]1C2(C)C` [Prostratin], the “ability to induce latent viral replication” value is “induce latent viral replication without encouraging cell cycle progression”.
